Assays:
Epac1 [1] = target: T1, Epac1 (Homo sapiens, UniProt O95398); experiment: Epac activation assay, Epac1; format: biochemical
T1 construct: made in house
T1 sequence (O95398 150-881 isoform O95398-3): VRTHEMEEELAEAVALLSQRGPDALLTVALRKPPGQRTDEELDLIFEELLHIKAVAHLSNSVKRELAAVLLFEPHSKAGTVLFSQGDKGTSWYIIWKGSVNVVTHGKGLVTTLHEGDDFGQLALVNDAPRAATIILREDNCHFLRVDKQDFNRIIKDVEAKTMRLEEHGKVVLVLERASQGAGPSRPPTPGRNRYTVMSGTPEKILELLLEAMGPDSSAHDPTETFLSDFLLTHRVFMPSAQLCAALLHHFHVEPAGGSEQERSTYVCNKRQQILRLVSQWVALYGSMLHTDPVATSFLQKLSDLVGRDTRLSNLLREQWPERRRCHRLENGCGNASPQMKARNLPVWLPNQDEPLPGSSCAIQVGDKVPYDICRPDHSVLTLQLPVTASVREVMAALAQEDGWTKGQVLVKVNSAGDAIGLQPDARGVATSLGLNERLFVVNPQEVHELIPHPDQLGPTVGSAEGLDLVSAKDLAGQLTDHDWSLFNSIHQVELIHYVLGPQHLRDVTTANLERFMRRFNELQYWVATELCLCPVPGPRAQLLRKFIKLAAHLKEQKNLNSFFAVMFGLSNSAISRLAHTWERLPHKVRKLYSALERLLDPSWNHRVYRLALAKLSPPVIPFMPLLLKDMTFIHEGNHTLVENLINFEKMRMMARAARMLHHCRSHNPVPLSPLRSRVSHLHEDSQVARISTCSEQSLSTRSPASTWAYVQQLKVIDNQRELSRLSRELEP

PKA-IIα = target: T2, PKA-IIα (Homo sapiens, UniProt P13861); experiment: PKA activity assay, PKA-IIα; format: biochemical; conditions: for A (PKA activity): PKAIIα
T2 construct: made in house
Method: The recombinant human PKA catalytic subunit (Cα1) and the four human PKA regulatory subunits (RIα, RIβ, RIIα, RIIβ) were expressed, purified, and characterized as described. […] PKA holoenzymes were formed by mixing the R- and C-subunit at a molar ratio of 1.2:1 and extensive dialysis against 20 mM MOPS (pH 7.0), 150 mM NaCl, 2.5 mM β-mercaptoethanol, supplemented with 1 mM ATP and 10 mM MgCl2 for PKA-I at 4°C overnight. PKA holoenzymes were used at about 20 nM for the activation assay. The apparent activation constants (Kact) were determined by fitting the concentration-dependent activity to a sigmoid dose-response model.

Epac1 [2] = target: T3, Epac1 (Homo sapiens, UniProt O95398); experiment: Cellular Epac activity: Rap•GTP levels in U2OS cells stably expressing Epac1; format: cell-based
T3 construct: pBabe-Flag-Epac1 (Epac1, homo sapiens, amino acids 1–881); expressed in transfected cells; host or cells: U2OS
T3 sequence (O95398 1-881 isoform O95398-3): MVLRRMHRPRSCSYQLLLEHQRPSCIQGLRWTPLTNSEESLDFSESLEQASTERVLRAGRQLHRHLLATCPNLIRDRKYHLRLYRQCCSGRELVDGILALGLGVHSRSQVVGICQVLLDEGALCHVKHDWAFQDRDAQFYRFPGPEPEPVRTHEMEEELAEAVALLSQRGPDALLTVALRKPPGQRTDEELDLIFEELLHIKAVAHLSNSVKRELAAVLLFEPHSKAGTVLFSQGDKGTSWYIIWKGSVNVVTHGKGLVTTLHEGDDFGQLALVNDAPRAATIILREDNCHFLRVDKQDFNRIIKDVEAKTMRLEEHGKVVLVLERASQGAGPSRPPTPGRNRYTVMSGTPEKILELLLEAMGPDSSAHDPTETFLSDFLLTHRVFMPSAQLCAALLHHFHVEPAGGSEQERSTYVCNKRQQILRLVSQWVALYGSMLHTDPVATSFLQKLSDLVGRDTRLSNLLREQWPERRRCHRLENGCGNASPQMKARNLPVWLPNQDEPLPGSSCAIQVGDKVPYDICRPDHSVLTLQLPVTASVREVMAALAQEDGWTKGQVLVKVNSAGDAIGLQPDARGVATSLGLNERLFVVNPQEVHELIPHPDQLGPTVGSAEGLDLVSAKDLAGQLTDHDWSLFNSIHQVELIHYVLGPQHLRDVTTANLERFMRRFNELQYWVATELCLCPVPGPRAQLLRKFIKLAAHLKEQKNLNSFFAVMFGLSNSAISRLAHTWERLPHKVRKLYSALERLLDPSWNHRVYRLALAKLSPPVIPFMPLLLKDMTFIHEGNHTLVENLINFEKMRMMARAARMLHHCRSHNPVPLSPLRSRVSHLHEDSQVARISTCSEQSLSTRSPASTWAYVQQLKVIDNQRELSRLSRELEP
Method: Rap•GTP levels were determined by precipitating GTP-bound Rap specifically from cell lysates and subsequent western Blotting with an α-Rap antibody (Santa Cruz Biotechnology). To generate stable cell lines, U2OS cells were transfected with pBabe-Flag-Epac1 (Epac1, homo sapiens, amino acids 1–881) or pBabe-Flag-Epac2 (Epac2, mus musculus, amino acids 1–993), selected for Epac expression and maintained under selection with 2 mg/l puromycin. The cells were cultured according to standard protocols. The activity of PKA was determined by western blotting with a monoclonal α-VASP antibody (BD Transduction Laboratories). Blots were developed by enhanced chemiluminescence (ECL) and the use of X-ray films; for quantification films were scanned. The intensities of the Rap•GTP bands and the upper band of VASP (P-VASP) were determined for each condition in ImageJ and normalized to the stimulation with forskolin and IBMX for each blot.

T2 sequence (P13861 whole entry): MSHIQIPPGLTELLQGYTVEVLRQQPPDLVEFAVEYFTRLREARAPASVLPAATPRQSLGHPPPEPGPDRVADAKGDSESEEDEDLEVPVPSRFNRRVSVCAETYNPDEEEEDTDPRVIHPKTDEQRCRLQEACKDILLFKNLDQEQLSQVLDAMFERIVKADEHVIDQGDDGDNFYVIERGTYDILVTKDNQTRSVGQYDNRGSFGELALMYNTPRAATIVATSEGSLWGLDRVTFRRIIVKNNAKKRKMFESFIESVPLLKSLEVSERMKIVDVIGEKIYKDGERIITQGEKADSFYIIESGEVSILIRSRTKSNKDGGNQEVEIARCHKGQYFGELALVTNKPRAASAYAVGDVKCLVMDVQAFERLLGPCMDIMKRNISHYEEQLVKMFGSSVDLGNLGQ

Compound: Nc1ncnc2c1nc(SCc1ccccc1)n2[C@@H]1O[C@@H]2CO[P@](O)(=S)O[C@H]2[C@H]1O [S-220, Sp-8-BnT-cAMPS]
- kobs (Epac1 [1]; 0.01 μM compound): 1.6e-05 s⁻¹
- kobs (Epac1 [1]; 0.05 μM compound): 1.5e-05 s⁻¹
- kobs (Epac1 [1]; 0.08 μM compound): 1.6e-05 s⁻¹
- kobs (Epac1 [1]; 0.1 μM compound): 1.7e-05 s⁻¹
- kobs (Epac1 [1]; 0.2 μM compound): 1.7e-05 s⁻¹
- kobs (Epac1 [1]; 0.3 μM compound): 2e-05 s⁻¹
- kobs (Epac1 [1]; 0.5 μM compound): 2.2e-05 s⁻¹
- kobs (Epac1 [1]; 0.6 μM compound): 2.5e-05 s⁻¹
- kobs (Epac1 [1]; 0.7 μM compound): 2.7e-05 s⁻¹
- kobs (Epac1 [1]; 0.8 μM compound): 2.8e-05 s⁻¹
- kobs (Epac1 [1]; 1 μM compound): 4.3e-05 s⁻¹
- kobs (Epac1 [1]; 2 μM compound): 5.8e-05 s⁻¹
- kobs (Epac1 [1]; 3 μM compound): 7.9e-05 s⁻¹
- kobs (Epac1 [1]; 4 μM compound): 9.2e-05 s⁻¹
- kobs (Epac1 [1]; 5 μM compound): 0.000102 s⁻¹
- kobs (Epac1 [1]; 6 μM compound): 0.000128 s⁻¹
- kobs (Epac1 [1]; 7 μM compound): 0.000149 s⁻¹
- kobs (Epac1 [1]; 8 μM compound): 0.000153 s⁻¹
- kobs (Epac1 [1]; 10 μM compound): 0.000213 s⁻¹
- kobs (Epac1 [1]; 20 μM compound): 0.000263 s⁻¹
- kobs (Epac1 [1]; 30 μM compound): 0.000312 s⁻¹
- kobs (Epac1 [1]; 40 μM compound): 0.00033 s⁻¹
- kobs (Epac1 [1]; 50 μM compound): 0.000328 s⁻¹
- kobs (Epac1 [1]; 60 μM compound): 0.000336 s⁻¹
- kobs (Epac1 [1]; 70 μM compound): 0.000338 s⁻¹
- kobs (Epac1 [1]; 80 μM compound): 0.000331 s⁻¹
- AC50 (Epac1 [1]; Epac1): 13 µM
- ability to reach half-maximal cAMP activity (Epac1 [1]; Epac1): cannot activate Epac1 to the level of half-maximal cAMP-activity
- Rel. kmax (Epac1 [1]; Epac1, maximal activity relative to cAMP): 0.3
- Kact compared to cAMP (times higher / affinity reduced) (PKA-IIα; PKA-IIα): three to eight times higher
- EC50 (PKA-IIα; PKA-IIα, read-out: Kact): 0.27 µM
- A (PKA activity) (PKA-IIα; concentration 1 μM): 1.74E+01 U/mg
- A (PKA activity) (PKA-IIα; concentration 1.00E+01 μM): 2.30E+01 U/mg
- A (PKA activity) (PKA-IIα; concentration 1.00E-01 μM): 1.09E+01 U/mg
- A (PKA activity) (PKA-IIα; concentration 1.00E-02 μM): 5.815 U/mg
- A (PKA activity) (PKA-IIα; concentration 1.00E-03 μM): 5.193 U/mg
- A (PKA activity) (PKA-IIα; concentration 1.00E-04 μM): 4.739 U/mg
- A (PKA activity) (PKA-IIα; concentration 1.00E-05 μM): 3.782 U/mg
- A (PKA activity) (PKA-IIα; concentration 2.50E+02 μM): 2.28E+01 U/mg
- A (PKA activity) (PKA-IIα; concentration 2.50E-01 μM): 1.40E+01 U/mg
- A (PKA activity) (PKA-IIα; concentration 2.50E-02 μM): 8.017 U/mg
- activation of Epac1 in cells (Epac1 [2]): only minor effects
- rel. RapGTP (Epac1 [2]; relative to induction with forskolin and IBMX, Fig. 6C): 0.6097
